pIC50: −log10 of the molar value. Where a SMILES comes first, the peptide text is derived from it. [ ]: non-standard residue; d: D form. MeBmt = C/C=C/C[C@@H](C)[C@@H](O)[C@H](NC)C(=O)O; NMeY = CN[C@@H](Cc1ccc(O)cc1)C(=O)O; NMeF = CN[C@@H](Cc1ccccc1)C(=O)O; NMeI = CC[C@H](C)[C@H](NC)C(=O)O; NMeT = CN[C@H](C(=O)O)[C@@H](C)O; NMeL = CN[C@@H](CC(C)C)C(=O)O; NMeV = CN[C@H](C(=O)O)C(C)C; NMeA = CN[C@@H](C)C(=O)O; dNMeA = CN[C@H](C)C(=O)O; Abu = CC[C@H](N)C(=O)O; Sar = CNCC(=O)O
Target: T1, Cyclophilin A (Homo sapiens, UniProt P62937)
T1 construct: made in house
T1 sequence (P62937 whole entry, species assumed): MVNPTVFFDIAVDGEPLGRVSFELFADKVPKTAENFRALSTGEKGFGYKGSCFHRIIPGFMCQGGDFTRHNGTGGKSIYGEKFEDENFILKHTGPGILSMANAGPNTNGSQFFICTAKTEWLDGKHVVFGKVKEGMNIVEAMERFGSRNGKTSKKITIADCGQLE
Test: AlphaLISA inhibition of binding of biotinylated Cyclosporin A to FLAG tagged Cyclophilin A
Conditions: for % signal: AlphaLISA signal; for % signal / % inhibition of CsA binding to Cyclophilin A: test concentration not given; for pIC50: read-out: IC50 value of CsA binding to Cyclophilin A
Excerpt: The binding of compounds of the invention to Cyclophilin A can be determined using the following protocol.
This protocol utilizes Perkin Elmers AlphaLISA technology platform to detect cyclosporine analogues by measuring the inhibition of binding of biotinylated Cyclosporin A to FLAG tagged Cyclophilin A.
10×TBST Buffer (Boston BioProducts IBB-181), Biotinylated Cyclosporin A (in-house), FLAG tagged Cyclophilin A (in-house); anti-FLAG Donor beads (PerkinElmer AS103) and Streptavidin Acceptor beads (PerkinElmer AL125); Compounds in DMSO (in-house), Cyclosporin A (LC Labs Cat #C-6000).
Add 20 uL of 6 nM Biotinylated CsA working stock to each well of the 96-well plate. Add 1 uL of test compound (100% DMSO) to each well of the plate using the Janus MTD head and P20 tips (except control wells). Add 1 uL of DMSO to negative control wells and 1 uL of 500 uM Cyclosporin A solution to positive control wells. In the dark, add 20 uL of combined Donor/Acceptor beads to each well. Incubate in the dark for 30 minutes at room temperature. In the dark, add 10 uL of 25 nM Flag tagged CypA working stock to each well. Incubate in the dark for 60 minutes at room temperature. Protect plate from light until reading on Biotek Synergy2 Plate Reader; Alphalisa 96-well protocol (680 excitation/615 emission).

| SMILES | % signal [%] | pIC50 | % inhibition of CsA binding to Cyclophilin A [%] |
| --- | --- | --- | --- |
| C/C=C/C[C@@H](C)[C@@H](O)[C@H]1C(=O)N[C@@H](CC)C(=O)N(C)CC(=O)N(C)[C@@H]([C@@H](C)CC)C(=O)N[C@@H](C(C)C)C(=O)N(C)CC(=O)N[C@@H](C)C(=O)N[C@H](C)C(=O)N(C)[C@@H](CC(C)C)C(=O)N(C)[C@@H](CC(C)C)C(=O)N(C)[C@@H](C(C)C)C(=O)N1C [Compound C25] (cyclo([MeBmt][Abu][Sar][NMeI]V[Sar]A[dA][NMeL][NMeL][NMeV])) | 0.37 | > 5.70 | – |
| C/C=C/C[C@@H](C)[C@@H](O)[C@H]1C(=O)N[C@@H](CC)C(=O)N(C)CC(=O)N(C)[C@@H](Cc2ccccc2)C(=O)N[C@@H](C(C)C)C(=O)N(C)CC(=O)N[C@@H](C)C(=O)N[C@H](C)C(=O)N(C)[C@@H](CC(C)C)C(=O)N(C)[C@@H](CC(C)C)C(=O)N(C)[C@@H](C(C)C)C(=O)N1C [Compound C27] (cyclo([MeBmt][Abu][Sar][NMeF]V[Sar]A[dA][NMeL][NMeL][NMeV])) | 5.27 | > 5.70 | 94.73 |
| C/C=C/C[C@@H](C)[C@@H](O)[C@H]1C(=O)N[C@@H](CC)C(=O)N(C)CC(=O)N(C)CC(=O)N[C@@H](C(C)C)C(=O)N(C)CC(=O)N[C@@H](C)C(=O)N[C@H](C)C(=O)N(C)[C@@H](CC(C)C)C(=O)N(C)[C@@H](CC(C)C)C(=O)N(C)[C@@H](C(C)C)C(=O)N1C [Compound C28] (cyclo([MeBmt][Abu][Sar][Sar]V[Sar]A[dA][NMeL][NMeL][NMeV])) | 1.06 | > 5.70 | 98.94 |
| C/C=C/C[C@@H](C)[C@@H](O)[C@H]1C(=O)N[C@@H](CC)C(=O)N(C)CC(=O)N(C)[C@@H](CC(C)C)C(=O)N[C@@H](C(C)C)C(=O)N(C)CC(=O)N[C@@H](C)C(=O)N[C@H](C)C(=O)N(C)[C@@H](CC(C)C)C(=O)N(C)[C@@H](CC(C)C)C(=O)N(C)[C@@H](C(C)C)C(=O)N1C [Compound C30] | 0.06 | > 5.70 | 99.94 |
| C/C=C/C[C@@H](C)[C@@H](O)[C@H]1C(=O)N[C@@H](CC)C(=O)N(C)CC(=O)N(C)[C@@H]([C@@H](C)O)C(=O)N[C@@H](C(C)C)C(=O)N(C)CC(=O)N[C@@H](C)C(=O)N[C@H](C)C(=O)N(C)[C@@H](CC(C)C)C(=O)N(C)[C@@H](CC(C)C)C(=O)N(C)[C@@H](C(C)C)C(=O)N1C [Compound C31] (cyclo([MeBmt][Abu][Sar][NMeT]V[Sar]A[dA][NMeL][NMeL][NMeV])) | −0.03 | > 5.70 | 100.03 |
| C/C=C/C[C@@H](C)[C@@H](O)[C@H]1C(=O)N[C@@H](CC)C(=O)N(C)CC(=O)N(C)[C@@H](Cc2ccc(O)cc2)C(=O)N[C@@H](C(C)C)C(=O)N(C)CC(=O)N[C@@H](C)C(=O)N[C@H](C)C(=O)N(C)[C@@H](CC(C)C)C(=O)N(C)[C@@H](CC(C)C)C(=O)N(C)[C@@H](C(C)C)C(=O)N1C [Compound C32] (cyclo([MeBmt][Abu][Sar][NMeY]V[Sar]A[dA][NMeL][NMeL][NMeV])) | 0.14 | > 5.70 | 99.86 |
| C/C=C/C[C@@H](C)[C@@H](O)[C@H]1C(=O)N[C@@H](CC)C(=O)N(C)CC(=O)N(C)[C@@H]([C@@H](C)CC)C(=O)N[C@@H](C(C)C)C(=O)N(C)[C@@H](CC(C)C)C(=O)N[C@@H](CC(C)C)C(=O)N[C@H](C)C(=O)N(C)[C@@H](CC(C)C)C(=O)N(C)[C@@H](CC(C)C)C(=O)N(C)[C@@H](C(C)C)C(=O)N1C [Compound C45] (cyclo([MeBmt][Abu][Sar][NMeI]V[NMeL]L[dA][NMeL][NMeL][NMeV])) | −0.03 | > 5.70 | 100.03 |
| C/C=C/C[C@@H](C)[C@@H](O)[C@H]1C(=O)N[C@@H](CC)C(=O)N(C)CC(=O)N(C)[C@@H](C)C(=O)N[C@@H](C(C)C)C(=O)N(C)[C@@H](CC(C)C)C(=O)N[C@@H](CC(C)C)C(=O)N[C@H](C)C(=O)N(C)[C@@H](CC(C)C)C(=O)N(C)[C@@H](CC(C)C)C(=O)N(C)[C@@H](C(C)C)C(=O)N1C [Compound C46] (cyclo([MeBmt][Abu][Sar][NMeA]V[NMeL]L[dA][NMeL][NMeL][NMeV])) | 1.04 | > 5.70 | 98.96 |
| C/C=C/C[C@@H](C)[C@@H](O)[C@H]1C(=O)N[C@@H](CC)C(=O)N(C)CC(=O)N(C)[C@@H](Cc2ccccc2)C(=O)N[C@@H](C(C)C)C(=O)N(C)[C@@H](CC(C)C)C(=O)N[C@@H](CC(C)C)C(=O)N[C@H](C)C(=O)N(C)[C@@H](CC(C)C)C(=O)N(C)[C@@H](CC(C)C)C(=O)N(C)[C@@H](C(C)C)C(=O)N1C [Compound C48] (cyclo([MeBmt][Abu][Sar][NMeF]V[NMeL]L[dA][NMeL][NMeL][NMeV])) | 15.72 | > 5.70 | 84.28 |

The next lines start with the values.

| % signal [%] | pIC50 | % inhibition of CsA binding to Cyclophilin A [%] | SMILES |
| --- | --- | --- | --- |
| 2.56 | > 5.70 | 97.44 | C/C=C/C[C@@H](C)[C@@H](O)[C@H]1C(=O)N[C@@H](CC)C(=O)N(C)CC(=O)N(C)[C@@H](Cc2ccc(O)cc2)C(=O)N[C@@H](CC(C)C)C(=O)N(C)[C@@H](C)C(=O)N[C@@H](C)C(=O)N[C@H](C)C(=O)N(C)[C@@H](CC(C)C)C(=O)N(C)[C@@H](CC(C)C)C(=O)N(C)[C@@H](C(C)C)C(=O)N1C [Compound C16] (cyclo([MeBmt][Abu][Sar][NMeY]L[NMeA]A[dA][NMeL][NMeL][NMeV])) |
| 17.17 | > 5.70 | 82.83 | C/C=C/C[C@@H](C)[C@@H](O)[C@H]1C(=O)N[C@@H](CC)C(=O)N(C)CC(=O)N(C)[C@@H]([C@@H](C)CC)C(=O)N[C@@H](C)C(=O)N(C)CC(=O)N[C@@H](C)C(=O)N[C@H](C)C(=O)N(C)[C@@H](CC(C)C)C(=O)N(C)[C@@H](CC(C)C)C(=O)N(C)[C@@H](C(C)C)C(=O)N1C [Compound C17] (cyclo([MeBmt][Abu][Sar][NMeI]A[Sar]A[dA][NMeL][NMeL][NMeV])) |
| 2.12 | > 5.70 | – | C/C=C/C[C@@H](C)[C@@H](O)[C@H]1C(=O)N[C@@H](CC)C(=O)N(C)CC(=O)N(C)[C@@H](C)C(=O)N[C@@H](C)C(=O)N(C)CC(=O)N[C@@H](C)C(=O)N[C@H](C)C(=O)N(C)[C@@H](CC(C)C)C(=O)N(C)[C@@H](CC(C)C)C(=O)N(C)[C@@H](C(C)C)C(=O)N1C [Compound C18] (cyclo([MeBmt][Abu][Sar][NMeA]A[Sar]A[dA][NMeL][NMeL][NMeV])) |
| 16.79 | > 5.70 | 83.21 | C/C=C/C[C@@H](C)[C@@H](O)[C@H]1C(=O)N[C@@H](CC)C(=O)N(C)CC(=O)N(C)[C@H](C)C(=O)N[C@@H](C)C(=O)N(C)CC(=O)N[C@@H](C)C(=O)N[C@H](C)C(=O)N(C)[C@@H](CC(C)C)C(=O)N(C)[C@@H](CC(C)C)C(=O)N(C)[C@@H](C(C)C)C(=O)N1C [Compound C19] (cyclo([MeBmt][Abu][Sar][dNMeA]A[Sar]A[dA][NMeL][NMeL][NMeV])) |
| 2.77 | > 5.70 | 97.23 | C/C=C/C[C@@H](C)[C@@H](O)[C@H]1C(=O)N[C@@H](CC)C(=O)N(C)CC(=O)N(C)[C@@H](Cc2ccccc2)C(=O)N[C@@H](C)C(=O)N(C)CC(=O)N[C@@H](C)C(=O)N[C@H](C)C(=O)N(C)[C@@H](CC(C)C)C(=O)N(C)[C@@H](CC(C)C)C(=O)N(C)[C@@H](C(C)C)C(=O)N1C [Compound C20] (cyclo([MeBmt][Abu][Sar][NMeF]A[Sar]A[dA][NMeL][NMeL][NMeV])) |
| 31.08 | > 5.70 | 68.92 | C/C=C/C[C@@H](C)[C@@H](O)[C@H]1C(=O)N[C@@H](CC)C(=O)N(C)CC(=O)N(C)CC(=O)N[C@@H](C)C(=O)N(C)CC(=O)N[C@@H](C)C(=O)N[C@H](C)C(=O)N(C)[C@@H](CC(C)C)C(=O)N(C)[C@@H](CC(C)C)C(=O)N(C)[C@@H](C(C)C)C(=O)N1C [Compound C21] (cyclo([MeBmt][Abu][Sar][Sar]A[Sar]A[dA][NMeL][NMeL][NMeV])) |
| 5.97 | > 5.70 | 94.03 | C/C=C/C[C@@H](C)[C@@H](O)[C@H]1C(=O)N[C@@H](CC)C(=O)N(C)CC(=O)N(C)[C@@H](CC(C)C)C(=O)N[C@@H](C)C(=O)N(C)CC(=O)N[C@@H](C)C(=O)N[C@H](C)C(=O)N(C)[C@@H](CC(C)C)C(=O)N(C)[C@@H](CC(C)C)C(=O)N(C)[C@@H](C(C)C)C(=O)N1C [Compound C22] (cyclo([MeBmt][Abu][Sar][NMeL]A[Sar]A[dA][NMeL][NMeL][NMeV])) |
| 1.28 | > 5.70 | 98.72 | C/C=C/C[C@@H](C)[C@@H](O)[C@H]1C(=O)N[C@@H](CC)C(=O)N(C)CC(=O)N(C)[C@@H]([C@@H](C)O)C(=O)N[C@@H](C)C(=O)N(C)CC(=O)N[C@@H](C)C(=O)N[C@H](C)C(=O)N(C)[C@@H](CC(C)C)C(=O)N(C)[C@@H](CC(C)C)C(=O)N(C)[C@@H](C(C)C)C(=O)N1C [Compound C23] (cyclo([MeBmt][Abu][Sar][NMeT]A[Sar]A[dA][NMeL][NMeL][NMeV])) |
